Measurements from PubChem BioAssay AID2060494 (Molecular Pharmacology Branch, DTP, NCI, 2025).
pIC50: −log10 of the molar value. Where “and” joins values, the source holds several entries; their conditions need not be identical. Equal entries are not always repeated.

System: 435261-313-R-J1-PDC complex spheroid viability
Assay: Anticancer human tumor 435261-313-R-J1-PDC patient-derived colon adenocarcinoma cell line growth inhibition [GQUAD]
Conditions: for viability, T/C: stronger effect = lower value
Source text: DNA G-quadruplex Stabilizer Agents in Combinations in Complex Spheroids
A high-throughput screen of multi-cell type tumor spheroids was designed to identify active combinations of DNA G-quadruplex stabilizer agents and targeted small molecules. Complex spheroids include a stromal component modeled by human endothelial cells (HUVEC) and fibroblasts modeled by human mesenchymal stem cells (MSCs). The concentration ranges selected for each drug and investigational agent were based upon clinically achievable concentrations if the clinical Cmax of the agent was known.
Compounds. The drugs and investigational agents: pidnarulex (CX-5461; NSC782164), APTO-253 (NSC789042), BRACO-19 (NSC847499), peposertib (NSC802822), ceralasertib (NSC780249), elimusertib (NSC800525), camonsertib (NSC841442), AZD-1390 (NSC803789), olaparib (NSC753686), talazoparib (NSC767125), ART-558 (NSC835418), sotorasib (NSC818433), MRTX-1133 (NSC836407), SN-38 (NSC673596), topotecan (NSC609699), etoposide (NSC141540), doxorubicin (NSC123127), gemcitabine (NSC613327), 5-fluorouracil (NSC19893), paclitaxel (NSC125973), vemurafenib (NSC761431), panobinostat (NSC761190), R-306465 (JNJ-16241199; NSC773264), adavosertib (NSC754352), TP-3654 (NSC805149), carboplatin (NSC241240), KSQ-4279 (NSC840948), and staurosporine (NSC755774) were obtained from the National Cancer Institute (NCI) Developmental Therapeutics Program Chemical Repository (34). The FDA-approved anticancer drug set is available from the NCI Developmental Therapeutics Program. […] The stock solutions were prepared in dimethyl sulfoxide (DMSO, Sigma-Aldrich, St. Louis, MO, cat. D2650) at 800-fold the tested concentration and stored at -70 degrees C prior to their use. All drugs and investigational agents were tested over a range starting from a high concentration at or near the clinical Cmax and decreasing in half-log increments. If the clinical Cmax for an agent had not been determined, the highest concentration tested was 10 microM.
2.3 Cell Culture. All cells were maintained in an incubator at 37 degrees C and 5% CO2 with 95% humidity. The PDC lines were cultured according to standard operating procedures established by the NCI PDMR. All PDCs were thawed and cultured in Matrigel-coated flasks prepared with a working solution of 1X Ham's F-12 nutrient mix, without supplementation (Invitrogen, cat. 11765054), 100 U/mL penicillin-streptomycin (Invitrogen, cat. 15140122), and 2.5% Matrigel (Corning Inc., cat. 354248) for the first three passages. The 857933-349-R-J2-PDC line was cultured in 6C/Colon 1B media, which includes advanced DMEM/F-12 (Thermo Fisher Scientific, cat. 12634028), 10 mM HEPES (Thermo Fisher Scientific, cat. 15630080), 1X GlutaMAX supplement (Thermo Fisher Scientific, cat. 35050061), 0.1 mg/mL primocin (InvivoGen, cat. ant-pm-2), 10% defined fetal bovine serum, heat inactivated (HyClone Laboratories Inc., cat. SH30070.03HI), 50% L-WRN conditioned media (ATCC, cat. CRL-3276), 1.25 mM N-Acetyl-L-cysteine (Sigma-Aldrich, cat. A9165), 10 mM nicotinamide (Sigma-Aldrich, cat. N0636), 1X B-27 supplement (Thermo Fisher Scientific, cat. 17504044), 1X N-2 supplement (Thermo Fisher Scientific, cat. 17502048), 10 microM Y-27632 dihydrochloride (Tocris Bioscience, cat. 1254), and 50 ng/mL human EGF recombinant protein (Thermo Fisher Scientific, cat. PHG0311). The 485176-168-R4-J1-PDC line was cultured in Panc media, which includes all 6C/Colon 1B media components plus 100 ng/mL human FGF-10 (Thermo Fisher Scientific, cat. 100-26), 500 nM SB-431542 (Selleckchem, cat. S1067), and gastrin (Tocris, cat. 3006).
[…]
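Further: spheroids exposed to the agents for seven days before readout.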
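Wherever viability, T/C is given: percent of vehicle control viability with DMSO wells as 100%.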

pIC50 (curve of compound)	IC50 (compound alone, run of 02/20/2024)	pIC50 (compound alone, run of 02/26/2024)	SMILES	viability, T/C (compound 0.0316 µM)	viability, T/C (compound 0.1 µM)	viability, T/C (compound 0.316 µM)	viability, T/C (compound 1 µM)	viability, T/C (compound 3.16 µM)	viability, T/C (compound 10 µM)	viability, T/C (compound 0.000999 µM)	viability, T/C (compound 0.00316 µM)	viability, T/C (compound 0.00999 µM)	viability, T/C (compound 0.0999 µM)
5.23 and 5.15	–	–	CC(C)n1c(=O)n(C)c2cnc3cc(F)c(-c4ccc(OCCCN5CCCCC5)nc4)cc3c21	94.4% and 102%	88% and 71.4%	109% and 113%	81.4% and 57.3%	65.6% and 84.4%	37.7% and 38.4%	–	–	–	–
< 5.00	–	–	COc1cc(C2c3cc4c(cc3C(OC3OC5COC(C)OC5C(O)C3O)C3COC(=O)C23)OCO4)cc(OC)c1O (stereo not given)	118% and 96.2%	67.4% and 93.6%	83.6% and 91.3%	56.6% and 80.2%	62.7% and 78.5%	52.2% and 61.6%	–	–	–	–
–	1.81 µM [middle of 4 runs]	5.95 and 6.02 and 5.48	Cc1[nH]c2ccc(F)cc2c1-c1nc2c3cccnc3c3ncccc3c2[nH]1	99.6% [middle of 8 runs]	–	–	–	30.2% [middle of 8 runs]	24.5% [middle of 8 runs]	–	–	–	–
< 5.00	–	–	Cc1cccc(N(C)C(=O)C2C(O)CCN2c2nc(C)cc(C(F)(F)F)c2C#N)c1 (stereo not given)	102% and 105% and 116%	94.8% and 106% and 102%	138% and 103% and 89.8%	106% and 93.5% and 114%	100% and 89.1% and 85.5%	122% and 94.3% and 84%	–	–	–	–
< 5.00	–	–	Nc1ccn(C2OC(CO)C(O)C2(F)F)c(=O)n1 (stereo not given)	54.8% and 88.1% and 71.3%	48.5% and 89.5% and 58.6%	54.9% and 84.8% and 61.3%	51.8% and 98.2% and 50.4%	58.7% and 76.3% and 69.7%	51.3% and 66.3% and 51.9%	–	–	–	–
< 5.00	–	–	O=C(c1cc(Cc2n[nH]c(=O)c3ccccc23)ccc1F)N1CCN(C(=O)C2CC2)CC1	104% and 96%	101% and 90.4%	80.2% and 95.2%	98.7% and 88.8%	82.4% and 119%	71.2% and 80.3%	–	–	–	–

Continued, molecule first:

SMILES	pIC50 (curve of compound)	IC50 (compound alone, run of 02/20/2024)	pIC50 (compound alone, run of 02/26/2024)	viability, T/C (compound 0.0316 µM)	viability, T/C (compound 0.1 µM)	viability, T/C (compound 0.316 µM)	viability, T/C (compound 1 µM)	viability, T/C (compound 3.16 µM)	viability, T/C (compound 10 µM)	viability, T/C (compound 0.000999 µM)	viability, T/C (compound 0.00316 µM)	viability, T/C (compound 0.00999 µM)	viability, T/C (compound 0.0999 µM)
C=CC(=O)N1CCN(c2nc(=O)n(-c3c(C)ccnc3C(C)C)c3nc(-c4c(O)cccc4F)c(F)cc23)C(C)C1 (stereo not given)	< 5.00	–	–	113% and 111% and 86%	96% and 101% and 88.2%	127% and 125% and 132%	106% (2×) and 75.7%	134% and 124% and 116%	110% and 131% and 101%	–	–	–	–
CC1COCCN1c1cc(-c2ccnn2C)c2ccnc(-c3ccn[nH]3)c2n1 (stereo not given)	6.49 and 6.69	–	–	67.8% and 99.2%	53.6% and 47.4%	52.6% and 55.7%	38.4% and 36.9%	37.2% and 32.5%	20.3% and 19.5%	–	–	–	–
CC1COCCN1c1cc(C2(O)CC3CCC(C2)O3)c2cnn(-c3ccn[nH]3)c2n1 (stereo not given)	6.59 and 6.76	–	–	85.4% and 89.4%	58.9% and 54.2%	49.8% and 43.1%	29.2% and 27%	26.7% and 20.5%	9.56% and 9.97%	–	–	–	–
CC1COCCN1c1cc(C2(S(C)(=N)=O)CC2)nc(-c2ccnc3[nH]ccc23)n1 (stereo not given)	< 5.00 and 5.53	–	–	98.5% and 112% and 88.4%	87.1% and 109% and 69.1%	88.4% and 79.8% and 94%	83.2% and 81.4% (2×)	65.6% and 80.9% and 47.6%	51.2% and 79.8% and 42%	–	–	–	–
CC[C@@]1(O)C(=O)OCc2c1cc1n(c2=O)Cc2cc3c(CN(C)C)c(O)ccc3nc2-1	< 6.50	–	–	85.8% and 74.4% and 89.1%	–	59% and 68.4% and 67.3%	–	–	–	126% and 101% and 118%	61.6% and 94.8% and 94.1%	96.5% and 98.2% and 110%	75.2% and 72.1% and 83.8%
CCc1c2c(nc3ccc(O)cc13)-c1cc3c(c(=O)n1C2)COC(=O)[C@]3(O)CC	–	–	–	48.6% and 83.2% and 48.7%	–	30.8% and 54.3% and 25.1%	–	–	–	92.5% and 68.7% and 82%	48.6% and 84.6% and 53.4%	66.8% and 82.9% and 63.2%	44% and 53.8% and 41.1%
COc1ccc([C@@H](O)c2cc(-c3ncnc4cc(N5CCOCC5)ccc34)c(F)cc2Cl)nn1	5.71 and 5.58 and 6.01	–	–	105% and 99% and 90.9%	69.6% and 82.1% and 74.6%	81.5% and 103% and 90.2%	62.6% and 71.3% and 49.3%	38.6% and 47.8% and 37.7%	30.6% and 31.7% and 25.6%	–	–	–	–
COc1cccc2c1C(=O)c1c(O)c3c(c(O)c1C2=O)CC(O)(C(=O)CO)CC3OC1CC(N)C(O)C(C)O1 (stereo not given)	6.18 and 6.53	–	–	94.1% and 85%	67.5% and 76.3%	74.4% and 44%	37% and 26.8%	2.3% and 1.87%	4.42% and 1.38%	–	–	–	–
Cc1[nH]c2ccccc2c1CCNCc1ccc(/C=C/C(=O)NO)cc1	7.16 and 7.00	–	–	78.2% and 87.4%	–	7.05% and 6.56%	–	–	–	95.4% and 104%	69.8% and 120%	57.5% and 73.5%	38% and 48.4%
Cc1cnc(CNC(=O)c2c(=O)c3ccc(N4CCCN(C)CC4)nc3n3c2sc2ccccc23)cn1	–	–	–	74.8% [middle of 10 runs]	64.1% [middle of 10 runs]	57.7% [middle of 10 runs]	46.2% [middle of 10 runs]	9.54% [middle of 10 runs]	0.19% [middle of 7 runs]	–	–	–	–
Cn1ncnc1[C@H]1c2n[nH]c(=O)c3cc(F)cc(c23)N[C@@H]1c1ccc(F)cc1	< 6.50	–	–	71.5% and 116% and 74.2%	–	81.1% and 72% and 81.4%	–	–	–	129% and 93.2% and 109%	91% and 87% and 106%	114% and 98% and 124%	101% and 65.9% and 81.1%
